Source: patent US9573899B2, “USP7 inhibitor compounds and methods of use” (Genentech, Inc., priority 2015, dated 2017)

Legend:
[1] = target: T1, USP47 (Homo sapiens, UniProt Q96K76); assay: Ub-Rho110 DUB assay, Table 2, USP47; type: biochemical
T1 sequence (Q96K76 1-1375): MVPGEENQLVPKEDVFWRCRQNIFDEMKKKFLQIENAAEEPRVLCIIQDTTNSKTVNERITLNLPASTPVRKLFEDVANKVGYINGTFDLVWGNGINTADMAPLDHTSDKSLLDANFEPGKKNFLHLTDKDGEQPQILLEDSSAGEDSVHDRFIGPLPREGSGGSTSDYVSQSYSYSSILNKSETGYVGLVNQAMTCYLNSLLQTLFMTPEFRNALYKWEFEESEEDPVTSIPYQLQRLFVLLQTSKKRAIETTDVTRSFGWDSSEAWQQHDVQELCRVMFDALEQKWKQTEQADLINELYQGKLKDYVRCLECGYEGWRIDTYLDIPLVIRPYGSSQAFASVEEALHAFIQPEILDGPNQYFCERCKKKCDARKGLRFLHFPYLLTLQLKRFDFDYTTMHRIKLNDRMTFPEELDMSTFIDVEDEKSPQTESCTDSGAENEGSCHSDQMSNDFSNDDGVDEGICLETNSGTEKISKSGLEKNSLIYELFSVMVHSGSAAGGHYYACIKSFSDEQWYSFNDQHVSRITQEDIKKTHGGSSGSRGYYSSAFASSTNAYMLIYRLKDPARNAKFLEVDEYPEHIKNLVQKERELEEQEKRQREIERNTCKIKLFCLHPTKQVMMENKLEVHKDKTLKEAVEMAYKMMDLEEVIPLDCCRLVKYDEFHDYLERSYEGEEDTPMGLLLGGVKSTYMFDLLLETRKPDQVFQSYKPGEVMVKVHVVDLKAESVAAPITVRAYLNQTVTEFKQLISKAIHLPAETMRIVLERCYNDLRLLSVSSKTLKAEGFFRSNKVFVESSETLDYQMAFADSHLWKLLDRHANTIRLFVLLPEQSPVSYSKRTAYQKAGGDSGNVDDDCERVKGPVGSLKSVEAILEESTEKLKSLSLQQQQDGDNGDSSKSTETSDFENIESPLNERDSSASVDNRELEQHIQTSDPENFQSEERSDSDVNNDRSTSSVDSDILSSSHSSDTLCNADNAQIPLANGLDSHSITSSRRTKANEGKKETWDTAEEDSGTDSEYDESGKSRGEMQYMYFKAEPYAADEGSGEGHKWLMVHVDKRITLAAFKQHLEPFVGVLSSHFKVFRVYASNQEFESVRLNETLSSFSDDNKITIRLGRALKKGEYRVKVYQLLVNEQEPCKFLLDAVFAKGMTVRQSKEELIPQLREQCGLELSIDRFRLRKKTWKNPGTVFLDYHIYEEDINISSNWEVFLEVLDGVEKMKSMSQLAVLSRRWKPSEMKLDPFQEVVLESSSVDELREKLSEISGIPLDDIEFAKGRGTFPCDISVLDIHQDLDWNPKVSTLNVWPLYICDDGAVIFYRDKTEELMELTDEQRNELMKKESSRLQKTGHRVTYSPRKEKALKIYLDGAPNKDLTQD

[2] = system: p53 and p21 in HCT116 colon cancer cell lines; assay: Western blot of p53 and p21 in isogenic HCT116 cell lines (FIG. 2A); type: cell-based, Human; settings: isogenic HCT116: wild-type, USP7 null
Method: (§1) In 24-well plates, 0.10-0.15×10^6 (adherent) or 0.5×10^6 (suspension) cells were treated with 15 μM or 2.5 μM compounds, respectively, for 24 h in low serum prior to lysis for Western Blot analysis.

[3] = system: MDM2 in MCF7 breast cancer cells; assay: MDM2 turnover in MCF7 cells with cycloheximide (FIG. 3A); type: cell-based; settings: 15 μM, in the presence of cycloheximide (CHX)
Method: In 24-well plates, 0.15×10^6 MCF-7 cells were treated for a total of 8 h with DMSO or compounds (15 μM). During that 8 h, cycloheximide (CHX) was added for the indicated times prior to harvest.

[4] = system: p53, p21, MDM2 and E6AP in RKO, RKO-E6, Vibo and SiHA cell lines; assay: Western blot in RKO, RKO-E6, Vibo and SiHA cells (FIG. 14A); type: cell-based
Method: as §1

[5] = system: colon cancer cell lines RKO and RKO-E6, and cervical cancer cell lines Vibo and SiHA; assay: Incucyte cell proliferation in RKO, RKO-E6, Vibo and SiHA cells (FIG. 15); type: cell-based
Method: 2,500-5,000 cells were seeded in 1-well of a 96-well plate (Corning; 3904). The following day, the media was changed from normal (10%) to low serum (0.5%) containing vehicle (DMSO) or compounds. 16-24 h later FBS was added to each well to bring serum levels back to normal (10%). Cells were then allowed to grow for 2 days. All treatments were done in triplicate. The day after cells were seeded, the media was changed to low serum media containing 2 μM CellEvent Caspase 3/7 reagent (Life Technologies; C10423) and compounds. The plates were placed in an IncuCyte (Essen Bioscience, Inc.) live cell imager and scanning was started 15-20 mins after. IncuCyte™ ZOOM facilitates live-cell monitoring via customized imaging protocols. Images were taken every 2 h for at least 3 days, using a 10× objective. Phase contrast was used to measure cell confluency/density while green fluorescence was used to measure caspase activity. The images were analyzed using IncuCyte software (Basic Analysis parameters) and a ratio of caspase activity to cell density was determined.

[6] = target: T2, USP5 (Homo sapiens, UniProt P45974); assay: Ub-Rho110 DUB assay, Table 2, USP5
T2 sequence (P45974 1-858): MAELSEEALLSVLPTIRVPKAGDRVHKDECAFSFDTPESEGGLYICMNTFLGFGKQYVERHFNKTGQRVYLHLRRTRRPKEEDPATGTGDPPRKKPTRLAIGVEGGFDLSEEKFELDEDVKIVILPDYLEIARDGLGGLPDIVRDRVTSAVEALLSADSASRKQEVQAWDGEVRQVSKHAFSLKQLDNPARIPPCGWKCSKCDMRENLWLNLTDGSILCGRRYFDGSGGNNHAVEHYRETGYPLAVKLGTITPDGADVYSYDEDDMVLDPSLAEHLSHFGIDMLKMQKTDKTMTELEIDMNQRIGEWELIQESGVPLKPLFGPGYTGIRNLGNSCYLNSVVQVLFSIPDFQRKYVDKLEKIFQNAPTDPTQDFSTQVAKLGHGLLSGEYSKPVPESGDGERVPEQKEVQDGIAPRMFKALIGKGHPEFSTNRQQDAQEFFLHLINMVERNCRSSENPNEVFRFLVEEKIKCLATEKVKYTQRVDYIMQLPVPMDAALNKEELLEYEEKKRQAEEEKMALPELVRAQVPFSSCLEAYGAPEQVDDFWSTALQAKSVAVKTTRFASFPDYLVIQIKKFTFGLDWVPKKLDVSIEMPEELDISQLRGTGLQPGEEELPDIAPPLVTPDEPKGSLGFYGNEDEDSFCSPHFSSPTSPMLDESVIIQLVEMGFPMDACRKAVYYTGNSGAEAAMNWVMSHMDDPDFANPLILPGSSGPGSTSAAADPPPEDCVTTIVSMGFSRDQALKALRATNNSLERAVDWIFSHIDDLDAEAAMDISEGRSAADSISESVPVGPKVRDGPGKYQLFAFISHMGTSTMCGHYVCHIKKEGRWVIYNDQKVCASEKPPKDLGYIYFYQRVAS

SMILES: CCc1c(-c2ccc3cn(C)nc3c2)cnc(N)c1-c1ccc(O)cc1 [Compound 89, 4-[2-amino-4-ethyl-5-(2-methylindazol-6-yl)-3-pyridyl]phenol]
- IC50 [1]: > 200 µM
- stabilization of p53 and p21 (western blot) [2]: not
- destabilizing effect on MDM2 (western blot) [3]: less active
- effect on p53, p21, MDM2 and E6AP (western blot) [4]: stabilize p53, p21, and destabilize MDM2 and E6AP
- cell viability (Incucyte cell proliferation) [5]: not
- IC50 [6]: > 200 µM
